“And” between values parts separate entries of the source, which are not always exact repeats. Identical values can stand only once.
Target: T1, rat TRPV2 (Rattus norvegicus, UniProt Q9WUD2, A713V/L151P/T158I)
T1 construct: A cDNA fragment encoding the full-length rat TRPV2 was subcloned into pCI-neo; expressed in transfected cells
T1 sequence (Q9WUD2 1-761 L151P/T158I/A713V): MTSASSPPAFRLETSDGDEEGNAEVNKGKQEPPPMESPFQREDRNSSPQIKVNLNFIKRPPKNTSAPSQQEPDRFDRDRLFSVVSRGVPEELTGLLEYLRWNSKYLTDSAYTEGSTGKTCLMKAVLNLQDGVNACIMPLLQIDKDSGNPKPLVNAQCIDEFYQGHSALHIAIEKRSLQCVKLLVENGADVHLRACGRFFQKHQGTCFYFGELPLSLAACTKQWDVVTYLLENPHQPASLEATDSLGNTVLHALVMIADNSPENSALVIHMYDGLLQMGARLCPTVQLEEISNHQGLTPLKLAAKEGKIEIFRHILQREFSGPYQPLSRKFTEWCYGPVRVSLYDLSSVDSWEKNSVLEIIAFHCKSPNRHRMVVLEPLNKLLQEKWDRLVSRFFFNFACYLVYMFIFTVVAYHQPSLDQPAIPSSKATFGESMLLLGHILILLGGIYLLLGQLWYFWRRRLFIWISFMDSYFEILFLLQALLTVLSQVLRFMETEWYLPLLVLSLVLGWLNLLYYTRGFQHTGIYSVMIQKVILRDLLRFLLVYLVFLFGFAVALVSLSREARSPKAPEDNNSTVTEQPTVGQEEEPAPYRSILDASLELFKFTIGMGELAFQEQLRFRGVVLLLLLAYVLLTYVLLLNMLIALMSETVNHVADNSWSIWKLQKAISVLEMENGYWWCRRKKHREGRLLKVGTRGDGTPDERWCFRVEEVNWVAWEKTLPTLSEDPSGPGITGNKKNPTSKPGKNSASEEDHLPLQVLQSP
Experiment: FLIPR calcium mobilization assay in rat TRPV2-expressing HEK293 cells
Type: cell-based
Procedure: A cDNA fragment encoding the full-length rat TRPV2 was subcloned into pCI-neo (Promega, Madison, Wis.) mammalian expression vector. The expression construct was then transfected into HEK293 cells with FuGene6 transfection reagent (Roche, Indianapolis, Ind.) according to the vendor's protocol. Stable cell lines were selected by growth in the presence of 400 μg/ml G418. Single G418 resistant clones were isolated and purified.
The rat TRPV2-expressing HEK293 cells were seeded in a 384-well plate at a concentration of 5×10^3 cells/well and incubated overnight at 37° C. The following day, the cells were loaded with buffer and calcium dye 3 (Molecular Devices, Sunnyvale, Calif.) in a final volume of 50 μl and incubated for 30 minutes at 37° C./5% CO2 followed by 30 additional minutes at room temperature. The fluorescence intensity was measured by a fluorescent plate reader (FLIPR) before, during and after the addition of test compounds.
All data was normalized to that observed for 100 μM Δ^9-THC.

Delta-9-tetrahydrocannabinol [Δ^9-THC] was tested, and the “elevation of intracellular Ca2+ in rat TRPV2-expressing HEK293 cells” value (100 μM) was “robust elevation of intracellular Ca^2+”, the “% Response (activation of rat TRPV2)” value (100 μM compound (anandamide 120 μM), normalized to 100 μM Δ^9-THC) was 100% and the “Hill slope of rat TRPV2 activation” value (FLIPR concentration-response, FIG. 4B) was 1.04. For the same substance, the EC50 (FLIPR, rat TRPV2-expressing HEK293 cells, read-out: EC50 (activation of rat TRPV2)) was 15.7 µM and 15.5 µM.

Reference: US7575882B2, “Compositions and methods for identifying modulators of TRPV2” (Janssen Pharmaceutica N. V., priority 2005, dated 2009)
